Experimental data from patent US20250195513A1, “DEGRADATION OF IRAK4 BY CONJUGATION OF IRAK4 INHIBITORS WITH E3 LIGASE LIGAND AND METHODS OF USE” (BeiGene, Ltd., priority 2022, published 2025).

Assays:
Assay type in all cases: cell-based
[1] = system: IL-6 production in human PBMC; assay: IL-6 Production Assay in Human PBMC (LPS stimulated); details: Homo sapiens, 5 h; for Emax: maximum inhibition, read-out: IL-6 (PBMC) 5 h IMax
Experimental: Frozen human PBMC (AllCells) were thawed in RPMI 1640 medium (Thermo Scientific) supplemented with 10% heat-inactivated FBS (Thermo Scientific) and recovered at 37° C. overnight. The next day, PBMC were seeded into 96-well plates at the density of 0.2 million cells per well and treated with compounds for 24 h. Then lipopolysaccharide was added at the final concentration of 10 ng/mL for 5 h. Culture supernatant was collected for subsequent measurement of IL-6 concentration by a TR-FRET-based method (Degorce, François, et al. Current chemical genomics. 2009, 3: 22) as described by the manufacturer manual (Cisbio). FRET signals were measured with PHERAstar FSX reader (BMG Labtech).

IRAK4 [2] = target: T1, IRAK4 (Homo sapiens, UniProt Q9NWZ3); assay: IRAK4 Degradation Assay (Karpas299, HTRF/TR-FRET); details: Karpas-299 cells; for Dmax: maximum percentage of degradation
T1 construct: endogenous in cells; host or cells: Karpas299
T1 sequence (Q9NWZ3 1-460): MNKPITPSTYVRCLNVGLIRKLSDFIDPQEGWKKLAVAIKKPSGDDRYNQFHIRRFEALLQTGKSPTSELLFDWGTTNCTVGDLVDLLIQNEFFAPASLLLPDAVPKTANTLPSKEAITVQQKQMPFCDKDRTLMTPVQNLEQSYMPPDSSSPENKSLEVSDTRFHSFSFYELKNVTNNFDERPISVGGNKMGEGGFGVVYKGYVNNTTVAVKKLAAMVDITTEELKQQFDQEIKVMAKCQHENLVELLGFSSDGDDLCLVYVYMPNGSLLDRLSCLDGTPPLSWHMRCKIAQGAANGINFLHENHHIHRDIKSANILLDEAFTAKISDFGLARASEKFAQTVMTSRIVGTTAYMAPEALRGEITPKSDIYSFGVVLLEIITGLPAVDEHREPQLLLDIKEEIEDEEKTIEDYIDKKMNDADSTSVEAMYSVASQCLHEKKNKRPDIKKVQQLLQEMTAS
Procedure, shortened: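 Karpas299 cells at 0.2 million per well were exposed to serially diluted compounds for 24 h or 5 h, then lysed. IRAK4 remaining in lysates was quantified by HTRF (665/620 nm) after overnight antibody incubation at room temperature. Percent degradation was fitted to a four-parameter curve to give IC50 (DC50).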

IRAK4 [3] = target: T1, IRAK4; assay: IRAK4 Degradation Assay with Human Serum (Karpas299, HTRF/TR-FRET); details: Karpas-299 in human serum, 24 hrs treatment; for DC50: read-out: IRAK4 degradtion with human serum assay DC50; for Dmax: read-out: IRAK4 degradtion with human serum assay Dmax (%)
Procedure, shortened: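 Karpas299 cells in human AB serum (0.2 million/well) treated with serial compound dilutions for 24 h. After lysis, IRAK4 quantified by HTRF (overnight antibody incubation at room temperature, 665/620 nm read). Degradation percentage fitted to four-parameter curve to give DC50.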

[4] = 24 h treatment, read-out: IRAK4 in Karpas-299 (24 h) Dmax (%)
[5] = 24 h treatment, read-out: IRAK4 in Karpas-299 (24 h) DC50

SMILES	Dmax (IRAK4 [2]; [4])	DC50 (IRAK4 [2]; [5])	DC50 (IRAK4 [3])	Dmax (IRAK4 [3])	Dmax (IRAK4 [2]; 5 h treatment, read-out: IRAK4 in Karpas-299 (5 h) Dmax (%))	DC50 (IRAK4 [2]; 5 h treatment, read-out: IRAK4 in Karpas-299 (5 h) DC50)	IC50 [1]	Emax [1]
COc1cc2nn([C@H]3CC[C@H](N4CCN(CC5CN(c6cc(F)c([C@H]7CCC(=O)NC7=O)c(F)c6)C5)CC4)CC3)cc2cc1C(=O)Nc1cnc2cccnn12 [Example 345, 2-((1r,4r)-4-(4-((1-(4-((R)-2,6-dioxopiperidin-3-yl)-3,5-difluorophenyl)azetidin-3-yl)methyl)piperazin-1-yl)cyclohexyl)-N-(imidazo[1,2-b]pyridazin-3-yl)-6-methoxy-2H-indazole-5-carboxamide]	98%	0.2 nM	0.7 nM	96%			3.5 nM	60%
CC(C)(O)c1cc2nn([C@H]3CC[C@H](N4C[C@@H]5CN(CCc6cc(F)c([C@H]7CCC(=O)NC7=O)c(F)c6)C[C@H]5C4)CC3)cc2cc1NC(=O)c1ccc2cc(C#N)cnn12 [Example 362, 3-cyano-N-(2-((1S,4r)-4-((3aS,6aS)-5-(4-((R)-2,6-dioxopiperidin-3-yl)-3,5-difluorophenethyl)hexahydropyrrolo[3,4-c]pyrrol-2(1H)-yl)cyclohexyl)-6-(2-hydroxypropan-2-yl)-2H-indazol-5-yl)pyrrolo[1,2-b]pyridazine-7-carboxamide]	98%	2.5 nM	5.1 nM	97%			6 nM	71%
CC(C)(O)c1cc2nn(C3CCC(N4C[C@@H]5CN(C6CN(c7cc(F)c([C@H]8CCC(=O)NC8=O)c(F)c7)C6)C[C@H]5C4)CC3)cc2cc1NC(=O)c1ccc2cc(C#N)cnn12 (stereo partly drawn) [Example 360, 3-cyano-N-(2-((1R,4r)-4-((3aR,6aR)-5-(1-(4-((R)-2,6-dioxopiperidin-3-yl)-3,5-difluorophenyl)azetidin-3-yl)hexahydropyrrolo[3,4-c]pyrrol-2(1H)-yl)cyclohexyl)-6-(2-hydroxypropan-2-yl)-2H-indazol-5-yl)pyrrolo[1,2-b]pyridazine-7-carboxamide]	97%	0.6 nM	1.8 nM	98%			0.6 nM	67%

Further lines, with some results ahead:

Dmax (IRAK4 [2]; [4])	DC50 (IRAK4 [2]; [5])	DC50 (IRAK4 [3])	Dmax (IRAK4 [3])	Dmax (IRAK4 [2]; 5 h treatment, read-out: IRAK4 in Karpas-299 (5 h) Dmax (%))	DC50 (IRAK4 [2]; 5 h treatment, read-out: IRAK4 in Karpas-299 (5 h) DC50)	SMILES	IC50 [1]	Emax [1]
98%	0.8 nM	6.9 nM	95%	90%	1.3 nM	COC[C@@H]1CN([C@H]2CC[C@H](n3cc4cc(NC(=O)c5ccc6cc(C#N)cnn56)c(C(C)(C)O)cc4n3)CC2)CCN1C1CN(c2cc(F)c([C@H]3CCC(=O)NC3=O)c(F)c2)C1 [Example 387, 3-cyano-N-(2-((1S,4r)-4-((S)-4-(1-(4-((R)-2,6-dioxopiperidin-3-yl)-3,5-difluorophenyl)azetidin-3-yl)-3-(methoxymethyl)piperazin-1-yl)cyclohexyl)-6-(2-hydroxypropan-2-yl)-2H-indazol-5-yl)pyrrolo[1,2-b]pyridazine-7-carboxamide]	1.7 nM	53%
96%	0.9 nM	15 nM	91%			COC[C@@H]1CN(CCc2cc(F)c([C@H]3CCC(=O)NC3=O)c(F)c2)CCN1[C@H]1CC[C@H](n2cc3cc(NC(=O)c4ccc5cc(C#N)cnn45)c(C(C)(C)O)cc3n2)CC1 [Example 325, 3-cyano-N-(2-((1S,4r)-4-((S)-4-(4-((R)-2,6-dioxopiperidin-3-yl)-3,5-difluorophenethyl)-2-(methoxymethyl)piperazin-1-yl)cyclohexyl)-6-(2-hydroxypropan-2-yl)-2H-indazol-5-yl)pyrrolo[1,2-b]pyridazine-7-carboxamide]	4.2 nM	72%
